From BigSolDB 2.1

CCS(=O)(=O)c1cccnc1S(=O)(=O)NC(=O)Nc1nc(OC)cc(OC)n1
solubility (mole fraction) (in DMF, 278.15 K): 5.64e-05
solubility (mole fraction) (in DMF, 283.15 K): 7.09e-05
solubility (mole fraction) (in DMF, 288.15 K): 8.7e-05
solubility (mole fraction) (in DMF, 293.15 K): 0.000106
solubility (mole fraction) (in DMF, 298.15 K): 0.000125
solubility (mole fraction) (in DMF, 303.15 K): 0.000148
solubility (mole fraction) (in DMF, 308.15 K): 0.000172
solubility (mole fraction) (in DMF, 313.15 K): 0.000199
solubility (mole fraction) (in DMF, 318.15 K): 0.000228
solubility (mole fraction) (in DMF, 323.15 K): 0.000262
solubility (mole fraction) (in ethanol, 278.15 K): 1.91e-05
solubility (mole fraction) (in ethanol, 283.15 K): 2.32e-05
solubility (mole fraction) (in ethanol, 288.15 K): 2.82e-05
solubility (mole fraction) (in ethanol, 293.15 K): 3.4e-05
solubility (mole fraction) (in ethanol, 298.15 K): 4.03e-05
solubility (mole fraction) (in ethanol, 303.15 K): 4.76e-05
solubility (mole fraction) (in ethanol, 308.15 K): 5.52e-05
solubility (mole fraction) (in ethanol, 313.15 K): 6.36e-05
solubility (mole fraction) (in ethanol, 318.15 K): 7.34e-05
solubility (mole fraction) (in ethanol, 323.15 K): 8.5e-05
solubility (mole fraction) (in ethylene glycol, 278.15 K): 7.03e-06
solubility (mole fraction) (in ethylene glycol, 283.15 K): 8.83e-06
solubility (mole fraction) (in ethylene glycol, 288.15 K): 1.07e-05
solubility (mole fraction) (in ethylene glycol, 293.15 K): 1.28e-05
solubility (mole fraction) (in ethylene glycol, 298.15 K): 1.53e-05
solubility (mole fraction) (in ethylene glycol, 303.15 K): 1.79e-05
solubility (mole fraction) (in ethylene glycol, 308.15 K): 2.08e-05
solubility (mole fraction) (in ethylene glycol, 313.15 K): 2.38e-05
solubility (mole fraction) (in ethylene glycol, 318.15 K): 2.76e-05
solubility (mole fraction) (in ethylene glycol, 323.15 K): 3.19e-05
solubility (mole fraction) (in methanol, 278.15 K): 2.17e-05
solubility (mole fraction) (in methanol, 283.15 K): 2.67e-05
solubility (mole fraction) (in methanol, 288.15 K): 3.26e-05
solubility (mole fraction) (in methanol, 293.15 K): 3.96e-05
solubility (mole fraction) (in methanol, 298.15 K): 4.7e-05
solubility (mole fraction) (in methanol, 303.15 K): 5.5e-05
solubility (mole fraction) (in methanol, 308.15 K): 6.37e-05
solubility (mole fraction) (in methanol, 313.15 K): 7.48e-05
solubility (mole fraction) (in methanol, 318.15 K): 8.56e-05
solubility (mole fraction) (in methanol, 323.15 K): 9.85e-05
solubility (mole fraction) (in water, 278.15 K): 2.28e-07
solubility (mole fraction) (in water, 283.15 K): 2.82e-07
solubility (mole fraction) (in water, 288.15 K): 3.44e-07
solubility (mole fraction) (in water, 293.15 K): 4.13e-07
solubility (mole fraction) (in water, 298.15 K): 4.88e-07
solubility (mole fraction) (in water, 303.15 K): 5.76e-07
solubility (mole fraction) (in water, 308.15 K): 6.77e-07
solubility (mole fraction) (in water, 313.15 K): 7.75e-07
solubility (mole fraction) (in water, 318.15 K): 8.96e-07
solubility (mole fraction) (in water, 323.15 K): 1.02e-06
